From patent publication US20240279202A1 (NURIX THERAPEUTICS, INC., priority 2021, published 2024)

Target: T1, ITK (Mus musculus, UniProt Q03526)
T1 construct: mice were sacrificed and splenocytes were isolated and used to prepare protein lysates; from tissue; host or cells: mouse splenocytes (spleen) after oral dosing
T1 sequence (Q03526 1-625): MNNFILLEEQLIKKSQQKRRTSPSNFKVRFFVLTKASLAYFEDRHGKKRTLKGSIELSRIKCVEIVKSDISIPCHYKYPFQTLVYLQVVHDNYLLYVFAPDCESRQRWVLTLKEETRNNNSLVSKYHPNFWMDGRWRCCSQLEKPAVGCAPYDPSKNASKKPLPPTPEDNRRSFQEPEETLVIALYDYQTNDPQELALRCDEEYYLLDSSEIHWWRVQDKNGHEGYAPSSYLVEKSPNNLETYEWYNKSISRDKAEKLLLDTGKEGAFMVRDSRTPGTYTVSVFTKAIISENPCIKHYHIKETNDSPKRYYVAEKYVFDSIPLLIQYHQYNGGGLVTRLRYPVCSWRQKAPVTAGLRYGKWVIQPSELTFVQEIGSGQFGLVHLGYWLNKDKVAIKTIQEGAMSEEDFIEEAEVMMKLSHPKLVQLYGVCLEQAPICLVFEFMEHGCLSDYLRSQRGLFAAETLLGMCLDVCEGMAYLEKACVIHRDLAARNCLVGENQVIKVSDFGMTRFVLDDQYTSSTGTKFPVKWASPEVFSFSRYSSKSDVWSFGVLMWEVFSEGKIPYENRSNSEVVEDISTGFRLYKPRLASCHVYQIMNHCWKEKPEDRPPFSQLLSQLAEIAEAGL
Experiment: Mouse PD assay for ITK degradation (Western blot, splenocytes after oral administration)
Type: in vivo
Details: percent ITK remaining in mouse splenocytes relative to vehicle, 90 mpk PO, 6 h
In short: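 Mice dosed orally, some compounds at 90 mg/kg; splenocytes harvested after 6 hours (some 24 hours). ITK measured by Western blot of equal-protein lysates, normalized to actin. Values are % ITK remaining relative to vehicle-control mean.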

SMILES	ITK (%) 90 mpk PO, 6 h [%]
CN(C(=O)CCC1CCN(c2ccc(C(=O)NC3CCC(=O)NC3=O)nc2)C1)c1ccc2cc(-c3n[nH]c4c3C[C@@H]3C(F)(F)[C@]3(C)C4)[nH]c2c1 (stereo partly drawn) [Compound 69, 5-(3-(3-((2-((4aS,5aR)-5,5-difluoro-5a-methyl-1,4,4a,5,5a,6-hexahydrocyclopropa[f]indazol-3-yl)-1H-indol-6-yl)(methyl)amino)-3-oxopropyl)pyrrolidin-1-yl)-N-(2,6-dioxopiperidin-3-yl)picolinamide]	140
CN(C(=O)CN1CCC2(CC1)CCN(c1ccc3c(c1)C(=O)N(C1CCC(=O)NC1=O)C3=O)C2)c1ccc2cc(-c3n[nH]c4c3C[C@@H]3C(F)(F)[C@]3(C)C4)[nH]c2c1 (stereo partly drawn) [Compound 72, N-(2-((4aS,5aR)-5,5-difluoro-5a-methyl-1,4,4a,5,5a,6-hexahydrocyclopropa[f]indazol-3-yl)-1H-indol-6-yl)-2-(2-(2-(2,6-dioxopiperidin-3-yl)-1,3-dioxoisoindolin-5-yl)-2,8-diazaspiro[4.5]decan-8-yl)-N-methylacetamide]	116
CN(C(=O)CC1CCN(CC2CCN(c3ccc(C4CCC(=O)NC4=O)cn3)CC2)CC1)c1ccc2cc(-c3n[nH]c4c3C[C@@H]3C(F)(F)[C@]3(C)C4)[nH]c2c1 (stereo partly drawn) [Compound 73, N-(2-((4aS,5aR)-5,5-difluoro-5a-methyl-1,4,4a,5,5a,6-hexahydrocyclopropa[f]indazol-3-yl)-1H-indol-6-yl)-2-(1-((1-(5-(2,6-dioxopiperidin-3-yl)pyridin-2-yl)piperidin-4-yl)methyl)piperidin-4-yl)-N-methylacetamide]	92
CN(C(=O)CC1CCN(CC2CCN(c3ccc(C(=O)NC4CCC(=O)NC4=O)nc3)CC2)CC1)c1ccc2cc(-c3n[nH]c4c3C[C@@H]3C(F)(F)[C@]3(C)C4)[nH]c2c1 (stereo partly drawn) [Compound 75, 5-(4-((4-(2-((2-((4aS,5aR)-5,5-difluoro-5a-methyl-1,4,4a,5,5a,6-hexahydrocyclopropa[f]indazol-3-yl)-1H-indol-6-yl)(methyl)amino)-2-oxoethyl)piperidin-1-yl)methyl)piperidin-1-yl)-N-(2,6-dioxopiperidin-3-yl)picolinamide]	137
